Laboratory results taken from patent US4673668A, “Aminonaphthacene derivatives” (Sumitomo Pharmaceuticals Company, priority 1982, dated 1987).
Several values for one entry are separate records, joined by “and”; a condition that tells them apart may be missing. Equal values may be shown once. Where a name gives a salt, the structure may show the parent alone. Read-outs that look alike come from different tables or passages of the source.

Tests used:
[1] = tested on: P388 mouse leukemia cells; experiment: Effect against survival time of mouse transplanted with P388 mouse leukemia cells (in vivo test, intraperitoneal administration); set-up: species or system mouse (CDF1); conditions: intraperitoneally, first and fifth days
Excerpt: (2) Effect against survival time of mouse transplanted with P388 mouse leukemia cells (in vivo test, intraperitoneal administration)
(§1) Tumor: P388 mouse leukemia.
(§2) Animals: CDF1 (BALB/C×DBA/2) mouse .male.5 weeks breeding, one group: 6 mice.
(§3) Number of cells transplanted: 10^6 /mouse, intraperitoneal administration.
Dosage: Test compound administered twice, i.e. the first and fifth days, intraperitoneally. Test compound hardly soluble or insoluble in water is applied in a solution or a suspension form by use of Tween 80.
(§4) Evaluation: Increase life span (ILS) is calculated on the basis of median survival times (T) and (C) of treated groups and controls, repsctively: [formula] (3) Effect against survival times of mouse transplanted with P388 mouse leukemia cells (in vivo test; intravenous or per os administration)

[2] = tested on: P388 mouse leukemia cells; experiment: Effect against P388 mouse leukemia cell (in vitro test); assay type: cell-based
Procedure: (1) Effect against P388 mouse leukemia cell (in vitro test)
P388 leukemia cells have been subcultured in abdominal cavity of DBA/2 mouse. […] A suspension of 5×10^4 cells/ml containing a test compound is prepared and is cultured in a wet atmosphere containing 5% CO2 at 37° C. for 48 hours.
Number of cells before and after culturing is counted by coulter counter. Proliferative ratio is defined as ratio of the increase in cells after proliferation for 48 hours to an increase in cells cultured in a suspension containing no test compound. Inhibition ratio (IR) is defined as follows: […]
1--(proliferative ratio).
In other words, [formula] where C^treated : number of cells after culturing for 48 hours in the presence of a treated compound
C^non : number of cells after culturing for 48 hours in the absence of a test compound
Co : number of cells when culturing is initiated.

[3] = tested on: P388 mouse leukemia cells; experiment: Effect against survival times of mouse transplanted with P388 mouse leukemia cells (in vivo test; intravenous); set-up: species or system mouse (CDF1); conditions: once, first day
Procedure: as §1, §2, §3, §4
(§5) Similar to (2), but a test compound administered once, i.e., only the first day, intravenously or orally.

[4] = Toxicity test (maximum tolerated dose); conditions: mouse, in vivo; single application; BALB/C mice, ten a group; largest amount where no death is seen
Excerpt: The largest amount where no death of mice is seen is defined as maximum tolerated dose.

[5] = tested on: P388 mouse leukemia cells; experiment: Effect against survival times of mouse transplanted with P388 mouse leukemia cells (in vivo test; per os administration); set-up: species or system mouse (CDF1); conditions: po, once, first day
Procedure: as §1, §2, §3, §4, §5

[6] = P388, 1 γ/ml, 48 hours, read-out: Inhibition ratio (IR)
[7] = P388, 10^-1 γ/ml, 48 hours, read-out: Inhibition ratio (IR)
[8] = P388, 10 γ/ml, 48 hours, read-out: Inhibition ratio (IR)
[9] = P388, 48 h, read-out: Inhibition ratio (IR), 1 γ/ml
[10] = P388, 48 h, read-out: Inhibition ratio (IR), 10^-1 γ/ml
[11] = P388, 48 h, read-out: Inhibition ratio (IR), 10 γ/ml

## CC(=O)[C@]1(N)Cc2c(O)c3c(c(O)c2[C@@H](OC2CCCCO2)C1)C(=O)c1ccccc1C3=O (single isomer, unassigned) [Example 10-A, 7-0-tetrahydropyranyl-9α-amino-9β-acetyl-7,8,9,10-tetrahydro-6,7α,11-trihydroxy-5,12-naphthacenedione]
[1]; 6.25 mg/kg
  Increase life span (ILS): 25%
[1]; 12.5 mg/kg
  Increase life span (ILS): 77%
[1]; 25 mg/kg
  Increase life span (ILS): 286%
[2]; [6]
  inhibition at 1 µg/mL: 94.4%
[2]; [7]
  inhibition at 0.1 µg/mL: 94.6%
[2]; [8]
  inhibition at 10 µg/mL: 89%

## CC(=O)O[C@H]1C[C@H](O[C@H]2C[C@](N)(C(C)=O)Cc3c(O)c4c(c(O)c32)C(=O)c2ccccc2C4=O)OC[C@H]1OC(C)=O [11 (hydrochloride), d-7α-[(2-deoxy-3,4-di-0-acetyl-β-D-erythro-pentapyranosyl)oxy]-9α-amino-9β-acetyl-7,8,9,10-tetrahydro-6,11-dihydroxy-5,12-naphthacenedione]
[1]; 6.25 mg/kg
  Increase life span (ILS): 37%
[1]; 12.5 mg/kg
  Increase life span (ILS): 123%
[1]; 25 mg/kg
  Increase life span (ILS): 280%
[3]; 10 mg/kg
  ILS: 35%
[3]; 20 mg/kg
  ILS: 67%
[3]; 40 mg/kg
  ILS: -45%
  Toxic Death: 6/6
[2]; [6]
  inhibition at 1 µg/mL: 97.9%
[2]; [7]
  inhibition at 0.1 µg/mL: 1.9%
[2]; [8]
  inhibition at 10 µg/mL: 100%
[4]
  MTD: 40 mg/kg
[5]; 17.5 mg/kg
  ILS: 40%
[5]; 35 mg/kg
  ILS: 63%
[5]; 70 mg/kg
  ILS: -42%
  Toxic Death: 6/6

## CC(=O)[C@]1(N)Cc2c(O)c3c(c(O)c2[C@@H](O[C@H]2C[C@H](O)[C@H](O)CO2)C1)C(=O)c1ccccc1C3=O [12 (hydrochloride), d-7α-[(2-deoxy-β-D-erythro-pentapyranosyl)oxy]-9αamino-9β-acetyl-7,8,9,10-tetrahydro-6,11-dihydroxy-5,12-naphthacenedione]
[3]; 10 mg/kg
  ILS: 32%
[3]; 20 mg/kg
  ILS: 60%
[3]; 40 mg/kg
  ILS: -43%
  Toxic Death: 6/6
[2]; [9]
  inhibition at 1 µg/mL: 83.8%
[2]; [10]
  inhibition at 0.1 µg/mL: 27.5%
[2]; [11]
  inhibition at 10 µg/mL: 85%
[4]
  MTD: 32 mg/kg
[5]; 17.5 mg/kg
  ILS: 31%
[5]; 35 mg/kg
  ILS: 50%
[5]; 70 mg/kg
  ILS: 86%

## CC[C@@]1(O)C[C@H](O[C@H]2C[C@H](N(C)C)[C@H](O[C@H]3C[C@H](O)[C@H](O[C@H]4CCC(=O)[C@H](C)O4)[C@H](C)O3)[C@H](C)O2)c2c(cc3c(c2O)C(=O)c2c(O)cccc2C3=O)[C@H]1C(=O)OC [ACM-A, AclacinomycinA, reference compound]
[5]; 10.7 mg/kg
  ILS: 11%
[5]; 21.5 mg/kg
  ILS: 25%
[5]; 43 mg/kg
  ILS: 37%

## COc1cccc2c1C(=O)c1c(O)c3c(c(O)c1C2=O)C[C@@](O)(C(=O)CO)C[C@@H]3O[C@H]1C[C@H](N)[C@H](O)[C@H](C)O1 [ADR, Adriamycin, reference compound]
[1]; 1 mg/kg, positive control
  Increase life span (ILS): 58% and 78% and 57%
[1]; 2 mg/kg, positive control
  Increase life span (ILS): 90% and 84%
[1]; 4 mg/kg, positive control
  Increase life span (ILS): 133%
[3]; 3.75 mg/kg
  ILS: 21%
[3]; 7.5 mg/kg
  ILS: 47%
[3]; 15 mg/kg
  ILS: 83%
[2]; [9]
  inhibition at 1 µg/mL: 85.9%
[2]; [10]
  inhibition at 0.1 µg/mL: 85%
[2]; P388, 48 h, read-out: Inhibition ratio (IR), 10^-2 γ/ml
  inhibition at 0.01 µg/mL: 69.2%
[2]; [11]
  inhibition at 10 µg/mL: 90.6%
[4]
  MTD: 12.5 mg/kg

## CC(=O)O[C@@H]1[C@H](C)O[C@@H](O[C@H]2C[C@](N)(C(C)=O)Cc3c(O)c4c(c(O)c32)C(=O)c2ccccc2C4=O)C[C@@H]1OC(C)=O [Example 1, d-7α-[(3,4-di-0-acetyl-2,6-dideoxy-α-L-lyxo-hexopyranosyl)oxy]-9α-amino-9β-acetyl-7,8,9,10-tetrahydro-6,11-dihydroxy-5,12-naphthacenedione]
[1]; 6.25 mg/kg
  Increase life span (ILS): 42%
[1]; 12.5 mg/kg
  Increase life span (ILS): 86%
[1]; 25 mg/kg
  Increase life span (ILS): 152%
[2]; [6]
  inhibition at 1 µg/mL: 84.1%
[2]; [7]
  inhibition at 0.1 µg/mL: 32.4%
[2]; [8]
  inhibition at 10 µg/mL: 82.7%

## CC(=O)[C@]1(N)Cc2c(O)c3c(c(O)c2[C@@H](O[C@H]2C[C@H](O)[C@H](O)[C@H](C)O2)C1)C(=O)c1ccccc1C3=O [Example 2, d-7α-[(2,6-dideoxy-α-L-lyxo-lexopyranosyl)oxy]-9α-amino-9β-acetyl-7,8,9,10-tetrahydro-6,11-dihydroxy-5,12-naphthacenedione]
[1]; 6.25 mg/kg
  Increase life span (ILS): 135%
[2]; [6]
  inhibition at 1 µg/mL: 84.5%
[2]; [7]
  inhibition at 0.1 µg/mL: 44.1%
[2]; [8]
  inhibition at 10 µg/mL: 89.9%

## CC(=O)[C@]1(N)Cc2c(O)c3c(c(O)c2[C@@H](O[C@H]2C[C@H](N)[C@H](O)[C@H](C)O2)C1)C(=O)c1c(O)cccc1C3=O [Example 25 (dihydrochloride), d-7α-[(2,3,6-trideoxy-3-amino-α-L-lyxo-hexopyranosyl)oxy]-9α-amino-9β-acetyl-4,6,11-trihydroxy-7,8,9,10-tetrahydro-5,12-naphthacenedione]
[2]; [6]
  inhibition at 1 µg/mL: 95.7%
[2]; [7]
  inhibition at 0.1 µg/mL: 89%
[2]; [8]
  inhibition at 10 µg/mL: 99.4%

## CC(O)[C@]1(N)Cc2c(O)c3c(c(O)c2[C@@H](OC2CCCCO2)C1)C(=O)c1ccccc1C3=O (stereo partly drawn) [Example 29, 7-0-tetrahydropyranyl-9α-amino-9β-(1-hydroxyethyl)-7,8,9,10-tetrahydro-6,7α,11-trihydroxy-5,12-naphthacenedione]
[1]; 3.13 mg/kg
  Increase life span (ILS): 66%
[1]; 6.25 mg/kg
  Increase life span (ILS): 126%
[2]; [6]
  inhibition at 1 µg/mL: 92.9%
[2]; [7]
  inhibition at 0.1 µg/mL: 93.5%
[2]; P388, 10^-2 γ/ml, 48 hours, read-out: Inhibition ratio (IR)
  inhibition at 0.01 µg/mL: 40.1%
[2]; [8]
  inhibition at 10 µg/mL: 94.1%
